Source: article PMC9061853, “Luminescent bis(benzo[d]thiazolyl)quinoxaline: facile synthesis, nucleic acid and protein BSA interaction, live-cell imaging, biopharmaceutical research and cancer theranostic application” (RSC Advances, 2019)

Tests used:
[1] = tested on: HeLa; experiment: MTT cytotoxicity assay, HeLa; type: cell-based, human; settings: for IC50: 24 h incubation; for SF (selectivity factor) HeLa: ratio of IC50 for HEK-293 to IC50 for HeLa
Protocol: (§1) Cytotoxicity studies were performed for all the synthesized quinoxaline compounds (7a–7g) using standard 3-(4,5-dimethylthiazol-2-yl)-2,5-diphenyltetrazolium bromide (MTT) assay beside a panel of cancer cell lines such as human epithelioid cervix carcinoma (HeLa), human colorectal adenocarcinoma cell line (Caco-2) and one normal human embryonic kidney cells (HEK-293) in triplicates (Table 3). […] It is noteworthy to mention that Compound 7a and 7g presented best cytoselectivity in HeLa and Caco-2 cell lines respectively. […]
(§2) In vitro cytotoxic activities (MTT assay):
(§3) The basic detection of cytotoxicity of anticancer compounds in vitro is MTT assay. The MTT proliferation assay is based on the reduction of the yellow MTT tetrazolium salt (3-[4,5-dimethylthiazol-2-yl]-2,5diphenyltetrazolium bromide) by mitochondrial dehydrogenases to form a purple MTT formazan crystals in viable cells. Synthesized compounds (7a-g) were prior dissolved in 0.1% DMSO and then serial dilution with medium and used in the experiment. Three different types of cancer cell lines were used in this experiment i.e., human Epitheloid Cervix Carcinoma (HeLa), human colon cancer cell line (Caco-2) and one normal kidney cell (HEK-293) were used in the assay. The cells were harvested at the log phase and it is cell counted using haemocytometer. Approximately 1 × 10^3 cells per well were seeded using all the cell lines. They were cultured in 100 μL of a DMEM media in 96-well plates and incubated at 37 °C for 24 hours under a 5% CO2 atmosphere. The cells were then washed with 1X PBS buffer and fresh media was added to the cells. The cells were then treated with different concentrations of the drugs (0.65-150 µM) in the volume of […] /well. Cisplatin has been used as a standard positive control drug. The control wells contains the same cell count of 1 × 10^3 cells per well of 100 μL medium containing 0.1% DMSO. After 24 h (for HeLa cell and HEK-293) and 72 h (for Caco-2), the medium was discarded and it is washed with 1X PBS and it was incubated with 100 µl of MTT reagent (1 mg/ml) for 4 h at 37°C.
(§4) Then the 96 well plate was placed on the shaker for 10 min and subsequently the absorbance was recorded by the ELISA reader at λ = 490 nm. The experiments were performed in […]
(§5) triplicate. […]

[2] = tested on: HEK-293; experiment: MTT cytotoxicity assay, HEK-293 normal cells; type: cell-based, human; settings: 24 h incubation
Protocol: as §1, §2, §3, §4, §5

[3] = MTT cytotoxicity assay, Caco-2; type: cell-based, human; settings: human, Caco-2, ratio of IC50 for HEK-293 to IC50 for Caco-2; read-out: SF (selectivity factor) Caco-2
From the text: as §2
as §3, with “/well.” for “/well. Cisplatin has been used as a standard positive control drug. The control wells contains the same cell count of 1 × 10^3 cells per well of 100 μL medium containing 0.1% DMSO. After 24 h (for HeLa cell and HEK-293) and 72 h (for Caco-2), the medium was discarded and it is washed with 1X PBS and it was incubated with 100 µl of MTT reagent (1 mg/ml) for 4 h at 37°C.”
(§6) The control wells contains the same cell count of 1 × 10^3 cells per well of 100 μL medium containing 0.1% DMSO. After 24 h (for HeLa cell and HEK-293) and 72 h (for Caco-2), the medium was discarded and it is washed with 1X PBS and it was incubated with 100 µl of MTT reagent (1 mg/ml) for 4 h at 37°C.
as §4, §5

[4] = tested on: Caco-2; experiment: MTT cytotoxicity assay, Caco-2; type: cell-based, human; settings: Homo sapiens, Caco-2; 72 h incubation
From the text: as §2
as §3, with “/well.” for “/well. Cisplatin has been used as a standard positive control drug. The control wells contains the same cell count of 1 × 10^3 cells per well of 100 μL medium containing 0.1% DMSO. After 24 h (for HeLa cell and HEK-293) and 72 h (for Caco-2), the medium was discarded and it is washed with 1X PBS and it was incubated with 100 µl of MTT reagent (1 mg/ml) for 4 h at 37°C.”
as §6, §4, §5

[5] = Fluorescence quantum yield in water; type: physicochemical; settings: 298 K, quinine sulphate as standard
Protocol: To know the absorption and emission behaviour of these synthesized compounds (7a–g), a standard concentration (3 × 10^−6 mol l^−1) in water has been used. In UV-vis spectra, λmax of all these compounds are observed at 320–330 nm due to π–π* transition (Fig. S1a ^†). The corresponding emission peaks are observed at 400–500 nm (Fig. S1b ^†). The emission of quantum yield (Φ) was calculated for all of the compounds (7a–g) using eqn (1) (Table S1 ^†). […]
2.6.2. Fluorescence study:
To know the emission property of all the synthesized complexes (7a-g), an initial investigation was performed using spectrofluorometric method in water by using absorption maximum as their excitation energy. Fluorescence quantum yield (Ф) of all the prepared compounds performed in water solution were calculated by employing the comparative William's method which involves the use of well-characterized standard with the known quantum yield value. Quinine sulphate was used as reference fluorophore excited at 350 nm and emission at 452 nm, quantum yield (ФR) = 0.50 in 1N H2SO4. The gradients of the plots are proportional to the quantum yield (Ф) of the studied system. The data obtained and quantum yield value calculated according to the equation (2): […]
Where, φ = Quantum yield, I = Peak Area, OD = absorbance at λmax, η = Refractive index of solvent and reference. Here, we have used Quinine Sulphate as a standard for calculating emission of quantum yield. […]

Structure (SMILES)	Φ, emission quantum yield [5]	melting point	IC50 [1]	IC50 [2]	selectivity ratio [3]	IC50 [4]	IC50 ([1]; Homo sapiens, HeLa)	SF (selectivity factor) HeLa [1]	IC50 ([2]; Homo sapiens, HEK293)
N.N.[Cl][Pt][Cl] [Cisplatin, reference compound]			14.5 ± 0.8 µM	50 ± 1.2 µM					
c1ccc(-c2nc3ccccc3s2)c(OCc2nc3ccccc3nc2COc2ccccc2-c2nc3ccccc3s2)c1 [Compound 7a]	0.006	130 to 135 °C			1.71	69.8 ± 0.8 µM	73.1 ± 1.7 µM	1.6	120 ± 0.9 µM
Brc1ccc2nc(COc3ccccc3-c3nc4ccccc4s3)c(COc3ccccc3-c3nc4ccccc4s3)nc2c1 [Compound 7b]	0.017	145 °C			1.28	109 ± 0.8 µM	> 100 µM	< 1.4	140 ± 1.4 µM

Further lines, with some results ahead:

Φ, emission quantum yield [5]	melting point	Structure (SMILES)	IC50 [1]	IC50 [2]	selectivity ratio [3]	IC50 [4]	IC50 ([1]; Homo sapiens, HeLa)	SF (selectivity factor) HeLa [1]	IC50 ([2]; Homo sapiens, HEK293)
0.017	150 °C	Clc1ccc2nc(COc3ccccc3-c3nc4ccccc4s3)c(COc3ccccc3-c3nc4ccccc4s3)nc2c1 [Compound 7c]			2.13	75 ± 3.5 µM	68.61 ± 0.2 µM	2.3	160 ± 2.1 µM
0.04	135 to 139 °C	Fc1ccc2nc(COc3ccccc3-c3nc4ccccc4s3)c(COc3ccccc3-c3nc4ccccc4s3)nc2c1 [Compound 7d]			> 2.17	92 ± 4.9 µM	117 ± 5.4 µM	>1.7	> 200 µM
0.014		Fc1cc2nc(COc3ccccc3-c3nc4ccccc4s3)c(COc3ccccc3-c3nc4ccccc4s3)nc2cc1Cl [Compound 7f]			> 2	> 100 µM	44.3 ± 0.3 µM	>4.5	> 200 µM
